# Measurements from patent US20250034254A1, “USE OF ANTI-PD-1 ANTIBODY IN COMBINATION WITH CHEMOTHERAPY IN TREATING ESOPHAGEAL CANCER” (SHANGHAI JUNSHI BIOSCIENCES CO., LTD., priority 2021, published 2025).
# Tests used:
# [1] = tested on: patients with advanced or metastatic esophageal squamous cell carcinoma; test: Phase III clinical study of toripalimab (JS001) or placebo in combination with first-line chemotherapy: efficacy (ITT, RECIST 1.1); format: in vivo, human; conditions: for Objective response rate (ORR) / Objective response rate (ORR), number of subjects: RECIST 1.1; for DCR inter-group difference (95% CI) / ORR inter-group difference (95% CI): JS001 + TP versus Placebo + TP; for Duration of response (DOR), median: patients with BOR of CR or PR
# From the text: (§1) This is a randomized, double-blind, placebo-controlled, multicenter, phase III clinical study evaluating the efficacy and safety of toripalimab (JS001) or placebo in combination with first-line chemotherapy in patients with advanced or metastatic esophageal squamous cell carcinoma that are not previously treated with systemic chemotherapy and exploring the population with optimal biomarker prediction.
# Eligible subjects shall meet the following criteria: (1) aged between 18 and 75 years; (2) histologically or pathologically confirmed metastatic or relapsed esophageal squamous cell carcinoma; (3) previously not treated for relapsed or metastatic ESCC; (4) at least one measurable lesion (according to RECIST 1.1); (5) an ECOG score of 0 or 1; (6) normal organ functions.
# (§2) Approximately 514 patients with advanced or metastatic esophageal squamous cell carcinoma were randomized into two groups in a ratio of 1:1, with the treatment group receiving toripalimab in combination with first-line chemotherapy and the control group receiving placebo in combination with first-line chemotherapy. The patients were stratified by ECOG score (0 vs 1) and previous radiotherapy (present vs absence).
# (§3) After randomization, the patients were subject to combination chemotherapy, receiving toripalimab or placebo+first-line chemotherapy for up to 6 cycles. After that, the patients were subject to maintenance therapy, continuously receiving toripalimab or placebo treatment until disease progression, intolerable toxicity, withdrawal from the study or up to 2 years.
# (§4) Toripalimab 240 mg/placebo was administered by intravenous infusion once every three weeks (Q3W) in treatment cycles of 21 days. Treatment continued until the patients met the discontinuation criteria, i.e., recorded disease progression, unacceptable AE, investigator-assessed unsuitability for continued treatment, withdrawal of informed consent, 2 years of JS001 treatment or other reasons as specified in the protocol.
# as §4, with “Toripalimab injection” for “Toripalimab”, “Q3W” for “once every three weeks (Q3W)”, “patient” for “patients”, “AEs,” for “AE,”
# The patients received JS001/placebo+first-line chemotherapy during the combination chemotherapy period (up to 6 cycles). After that, the patients were subject to maintenance monotherapy, continuously receiving JS001/placebo treatment until disease progression, intolerable toxicity, withdrawal from the study or up to 2 years.
# (§5) Intent-to-Treat (ITT) set: including all randomized patients during the primary study period. This analysis set was used as the primary analysis set for efficacy analysis. Per protocol set (PPS): including all ITT population having valid baseline information without major violation to the protocol that may affect the efficacy analysis. The PPS population was determined based on actual protocol violations before database lock of the study. The PPS population was used for sensitivity analysis of the primary efficacy endpoints as well as part of the secondary efficacy endpoints. Safety analysis set (SS): including all patients who received at least one dose of the study drug (JS001/placebo/chemotherapeutic agent).
# Unless otherwise specified, the efficacy analysis was based on the ITT set by treatment. […]
# [2] = Phase III clinical study of toripalimab (JS001) or placebo in combination with first-line chemotherapy: safety (SS population); conditions: human, in vivo
# From the text: as §1, §2, §3, §4, §5
# All safety analyses were based on the SS population (514 patients), including 257 patients in the treatment group and 257 patients in the control group. Both groups were sufficiently exposed to JS001+chemotherapy treatment or placebo+chemotherapy treatment. The primary safety analysis results based on the SS population in the double-blind phase of the primary study are as follows: […]
# [3] = BICR-assessed, listed as treatment group
# [4] = ITT, as of Mar. 22, 2021, median follow-up 7.343 months
# [5] = ITT, assessed by the investigator
substance,measurement,setting,value
JS001 + TP: toripalimab 240 mg Q3W in combination with first-line chemotherapy TP (paclitaxel 175 mg/m^2 + cisplatin 75 mg/m^2),6-month DOR,[1]; BICR-assessed,47.4%
same,12-month DOR (1-year DOR rate),[1]; BICR-assessed,28.2%
same,Best overall response: Complete response (CR),[1]; BICR-assessed,(11.7) %
same,"Best overall response: Complete response (CR), number of subjects",[1]; BICR-assessed,30
same,"Best overall response: Not applicable, number of subjects",[1]; BICR-assessed,0
same,"Best overall response: Not evaluable (NE), number of subjects",[1]; BICR-assessed,0
same,Best overall response: Partial response (PR),[1]; BICR-assessed,(57.6) %
same,"Best overall response: Partial response (PR), number of subjects",[1]; BICR-assessed,148
same,Best overall response: Progressive disease (PD),[1]; BICR-assessed,(7.0) %
same,"Best overall response: Progressive disease (PD), number of subjects",[1]; BICR-assessed,18
same,"Best overall response: Stable disease (SD), number of subjects",[1]; BICR-assessed,51
same,Best overall response: non-CR/non-PD,[1]; BICR-assessed,(0.4) %
same,"Best overall response: non-CR/non-PD, number of subjects",[1]; BICR-assessed,1
same,DOR HR (95% CI),[1]; BICR-assessed,"0.58 (0.412, 0.810), P = 0.00136"
same,Disease control rate (DCR),[1]; BICR-assessed,89.1%
same,"Disease control rate (DCR), number of subjects",[1]; BICR-assessed,229
same,Objective response rate (ORR),[1]; BICR-assessed,69.3%
same,"Objective response rate (ORR), number of subjects",[1]; BICR-assessed,178
same,DCR inter-group difference (95% CI),[1]; BICR-assessed,"7.1 (1.1, 13.1) %"
same,ORR inter-group difference (95% CI),[1]; BICR-assessed,"17.2 (9.0, 25.4) %"
same,ORR inter-group difference (95% CI),[1]; [3],17.2%
same,DOR HR (95% CI),[1]; [3],0.58
same,"Duration of response (DOR), median",[1]; BICR-assessed,5.6 month
same,PFS subpopulation analysis,"[1]; BIRC, ECOG score, previous radiotherapy, disease stage, PD-L1 expression, 11q13, TMB subpopulations",superiority in PFS
same,OS subpopulation analysis,"[1]; ECOG score, previous radiotherapy, disease stage, PD-L1 expression, 11q13, TMB subpopulations",superiority in OS
same,"OS hazard ratio (HR), treatment vs control group",[1]; ITT population,0.58
same,median OS,[1]; ITT population,17.0 months
same,prolongation of median OS versus chemotherapy,[1]; ITT population,6 months
same,reduction of death hazard versus chemotherapy,[1]; ITT population,42%
same,"deaths reported, % of patients",[1]; [4],27.2%
same,"deaths reported, number of patients",[1]; [4],70
same,1-year PFS rate,"[1]; ITT, assessed by BIRC",27.8%
same,"PFS hazard ratio (HR), treatment vs control group","[1]; ITT, assessed by BIRC",0.58
same,reduction of progression or death hazard versus chemotherapy,"[1]; ITT, assessed by BIRC",42%
same,median PFS,"[1]; ITT, assessed by BIRC based on RECIST 1.1",5.7 months
same,"PFS hazard ratio (HR), treatment vs control group",[1]; [5],0.58
same,reduction of progression or death hazard versus chemotherapy,[1]; [5],42%
same,median PFS,"[1]; ITT, assessed by the investigator based on RECIST 1.1",7.0 months
same,6-month DOR,[1]; Investigator-assessed,55.6%
same,12-month DOR,[1]; Investigator-assessed,30.9%
same,Best overall response: Complete response (CR),[1]; Investigator-assessed,(5.1) %
same,"Best overall response: Complete response (CR), number of subjects",[1]; Investigator-assessed,13
same,"Best overall response: Not evaluable (NE), number of subjects",[1]; Investigator-assessed,0
same,Best overall response: Partial response (PR),[1]; Investigator-assessed,(67.3) %
same,"Best overall response: Partial response (PR), number of subjects",[1]; Investigator-assessed,173
same,Best overall response: Progressive disease (PD),[1]; Investigator-assessed,(3.9) %
same,"Best overall response: Progressive disease (PD), number of subjects",[1]; Investigator-assessed,10
same,"Best overall response: Stable disease (SD), number of subjects",[1]; Investigator-assessed,52
same,DOR HR (95% CI),[1]; Investigator-assessed,"0.50 (0.359, 0.684), P = 0.00001"
same,Disease control rate (DCR),[1]; Investigator-assessed,92.6%
same,"Disease control rate (DCR), number of subjects",[1]; Investigator-assessed,238
same,Objective response rate (ORR),[1]; Investigator-assessed,72.4%
same,"Objective response rate (ORR), number of subjects",[1]; Investigator-assessed,186
same,DCR inter-group difference (95% CI),[1]; Investigator-assessed,"5.5 (0.3, 10.7) %"
same,ORR inter-group difference (95% CI),[1]; Investigator-assessed,"14.1 (6.0, 22.2) %"
same,ORR inter-group difference (95% CI),"[1]; Investigator-assessed, listed as treatment group",14%
same,"Duration of response (DOR), median",[1]; Investigator-assessed,4.2 month
same,prolongation of DOR over the control group,[1]; assessed by BIRC,1.4 months
same,SAE: anemia,[2],1.2%
same,SAE: asthenia,[2],1.2%
same,SAE: bone marrow depression,[2],1.2%
same,SAE: decreased leukocyte count,[2],2.3%
same,SAE: decreased neutrophil count,[2],1.6%
same,SAE: decreased platelet count,[2],1.6%
same,SAE: dysphagia,[2],1.2%
same,SAE: infectious pneumonitis,[2],5.1%
same,SAE: vomiting,[2],8.9%
same,TEAE: alopecia,[2],35.4%
same,TEAE: anemia,[2],77.0%
same,TEAE: asthenia,[2],41.6%
same,TEAE: constipation,[2],24.1%
same,TEAE: decreased appetite,[2],39.3%
same,TEAE: decreased leukocyte count,[2],67.7%
same,TEAE: decreased neutrophil count,[2],66.9%
same,TEAE: decreased platelet count,[2],28.4%
same,TEAE: diarrhea,[2],23.0%
same,TEAE: nausea,[2],42.8%
same,TEAE: vomiting,[2],40.1%
same,TEAE: weight loss,[2],28.8%
same,"immune-related adverse events (irAEs), % of patients",[2],37%
same,"immune-related adverse events (irAEs), number of patients",[2],95
same,irAE resulting in death,[2],no irAE resulting in death was reported
same,"irAEs of grade 3 or higher, % of subjects",[2],6.6%
same,"irAEs of grade 3 or higher, number of subjects",[2],17
same,proportion of SAEs of grade 3 or higher as per CTCAE,[2],30.0%
same,proportion of TEAEs of grade 3 or higher as per CTCAE,[2],73.2%
same,proportion of patients who experienced at least 1 TEAE,[2],99.2%
same,proportion of treatment-emerged SAEs,[2],36.2%
